# In paper PMC7558399, “In Vitro Selective Growth-Inhibitory Activities of Phytochemicals, Synthetic Phytochemical Analogs, and Antibiotics against Diarrheagenic/Probiotic Bacteria and Cancer/Normal Intestinal Cells” (Pharmaceuticals, 2020):
# Where two headings read alike, the source gives them in different places.
# Columns and labels:
# Assay type in all cases: cell-based
# [1] = test system: Bacillus cereus (ATCC 14579); test: Broth microdilution MIC, B. cereus; conditions: median/mode, read-out: MIC
# [2] = test system: Clostridium difficile (DSMZ 12056); test: microbe, parasite or virus in culture; conditions: Clostridioides difficile, DSMZ12056
# [3] = test system: Clostridium perfringens (DSMZ 11778); test: microbe, parasite or virus in culture; conditions: DSMZ11778
# [4] = test system: Enterococcus faecalis (ATCC 29212); test: Broth microdilution MIC, E. faecalis
# [5] = test system: Escherichia coli (ATCC 25922); test: Broth microdilution MIC, E. coli
# [6] = test system: E. coli 0175:H7 (NCTC 12900); test: microbe, parasite or virus in culture; conditions: Escherichia coli, NCTC12900
# [7] = test system: Listeria monocytogenes (ATCC 7644); test: Broth microdilution MIC, L. monocytogenes
# [8] = test system: Shigella flexneri (ATCC 12022); test: microbe, parasite or virus in culture; conditions: ATCC12022
# [9] = test system: Salmonella enterica ssp. enterica serovar Enteritidis (ATCC 13076); test: Broth microdilution MIC, Salmonella Enteritidis
# [10] = test system: S. enterica ssp. enterica serovar Typhimurium (ATCC 14028); test: Broth microdilution MIC, Salmonella Typhimurium
# [11] = test system: Vibrio parahaemolyticus (ATCC 17802); test: Broth microdilution MIC, V. parahaemolyticus; conditions: read-out: MIC
# [12] = test system: Yersinia enterocolitica (ATCC 9610); test: Broth microdilution MIC, Y. enterocolitica; conditions: read-out: MIC
# [13] = test system: diarrheagenic bacteria (12 strains); test: organism not typed
# [14] = test system: Bacteroides fragilis (ATCC 25285); test: Broth microdilution MIC, B. fragilis
# [15] = test system: Bifidobacterium adolescentis (DSMZ 20087); test: Broth microdilution MIC, B. adolescentis
# [16] = test system: Bifidobacterium animalis spp. lactis (DSMZ 10140); test: Broth microdilution MIC, B. animalis spp. lactis; conditions: DSMZ10140
# [17] = test system: Bifidobacterium bifidum (ATCC 29521); test: Broth microdilution MIC, B. bifidum
# [18] = test system: Bifidobacterium breve (ATCC 15700); test: Broth microdilution MIC, B. breve
# [19] = test system: Bifidobacterium longum ssp. longum (DSMZ 20219); test: Broth microdilution MIC, B. longum ssp. longum; conditions: DSMZ20219
# [20] = test system: Lactobacillus casei (DSMZ 20011); test: Broth microdilution MIC, L. casei; conditions: Lacticaseibacillus casei, DSMZ20011, Lactobacillus casei, read-out: MIC
# [21] = test system: Lactobacillus reuteri (CCM 3625); test: Broth microdilution MIC, L. reuteri; conditions: Limosilactobacillus reuteri, CCM3625
# [22] = test system: Lactobacillus rhamnosus (CCM 7091); test: Broth microdilution MIC, L. rhamnosus; conditions: Lacticaseibacillus rhamnosus, CCM7091
# [23] = test system: probiotic bacteria (9 strains); test: Broth microdilution MIC, probiotic bacteria as a group (mean or range over strains)
# [24] = test system: HT29 (ATCC HTB 38) intestinal cancer cells; test: MTT cytotoxicity assay, HT29; conditions: Homo sapiens, HT-29, HT29, MTT, 72 h; for IC50: read-out: IC50 ± SD; for IC80: read-out: IC80 ± SD (80% inhibitory concentration of proliferation)
# [25] = test system: Caco-2 (ATCC HTB 37) intestinal cancer cells; test: MTT cytotoxicity assay, Caco-2; conditions: Homo sapiens; for IC50: read-out: IC50 ± SD; for IC80: read-out: IC80 ± SD (80% inhibitory concentration of proliferation)
# [26] = test system: intestinal cancer cells (HT29 and Caco-2); test: MTT cytotoxicity assay, mean for intestinal cancer cells; conditions: for IC50: read-out: x¯ -CC ± SD: mean IC50 for intestinal cancer cells; for IC80: read-out: x¯ -CC ± SD: mean IC80 for intestinal cancer cells
# [27] = test system: FHs 74 Int (ATCC CCL 241) intestinal normal cells; test: MTT cytotoxicity assay, FHs 74 Int; conditions: 72 h; for IC50 / IC80: FHs74Int; for IC50: read-out: IC50 ± SD; for IC80: read-out: IC80 ± SD (80% inhibitory concentration of proliferation)
# [28] = ATCC14579, growth inhibited by ≥80%
# [29] = Clostridium difficile, […], read-out: MIC
# [30] = ATCC29212, growth inhibited by ≥80%, read-out: MIC
# [31] = ATCC25922, growth inhibited by ≥80%, read-out: MIC
# [32] = ATCC7644, growth inhibited by ≥80%, read-out: MIC
# [33] = Salmonella Enteritidis, growth inhibited by ≥80%, read-out: MIC
# [34] = Salmonella Typhimurium, growth inhibited by ≥80%, read-out: MIC
# [35] = ATCC17802, growth inhibited by ≥80%
# [36] = ATCC9610, growth inhibited by ≥80%
# [37] = mean of 12 strains, >512 replaced with 1024, read-out: x¯ -DB ± SD: mean MIC for diarrheagenic bacteria
# [38] = ATCC25285, growth inhibited by ≥80%, read-out: MIC
# [39] = DSMZ20087, growth inhibited by ≥80%, read-out: MIC
# [40] = Bifidobacterium animalis spp. lactis, growth inhibited by ≥80%, read-out: MIC
# [41] = ATCC29521, growth inhibited by ≥80%, read-out: MIC
# [42] = ATCC15700, growth inhibited by ≥80%, read-out: MIC
# [43] = Bifidobacterium longum ssp. longum, growth inhibited by ≥80%, read-out: MIC
# [44] = Lactobacillus reuteri, growth inhibited by ≥80%, read-out: MIC
# [45] = Lactobacillus rhamnosus, growth inhibited by ≥80%, read-out: MIC
# [46] = mean of 9 strains, >512 replaced with 1024, read-out: x¯ -PB ± SD: mean MIC for probiotic bacteria
# [47] = mean of HT29 and Caco-2, >512 replaced with 1024
# [48] = FHs 74 Int (intestinal normal cells), MTT
# [49] = read-out: x¯ -PB ± SD: mean MIC for probiotic bacteria
structure (smiles),measurement,setting,value
"O=[N+]([O-])c1ccc(O)c2ncccc12 [NXL, 5-nitroquinolin-8-ol]",MIC,[1]; [28],4 µg/mL
same,MIC,[2]; [29],2 µg/mL
same,MIC,[3],4 µg/mL
same,MIC,[4]; [30],32 µg/mL
same,MIC,[5]; [31],4 µg/mL
same,MIC,[6],32 µg/mL
same,MIC,[7]; [32],16 µg/mL
same,MIC,[8],2 µg/mL
same,MIC,[9]; [33],16 µg/mL
same,MIC,[10]; [34],16 µg/mL
same,MIC,[11]; [35],8 µg/mL
same,MIC,[12]; [36],8 µg/mL
same,MIC,"[13]; B. cereus, clostridial species, E. coli, and S. flexneri, read-out: MICs",2 to 4 µg/mL
same,MIC,[13]; [37],12 ± 10 µg/mL
same,MIC,[14]; [38],4 µg/mL
same,MIC,[15]; [39],16 µg/mL
same,MIC,[16]; [40],32 µg/mL
same,MIC,[17]; [41],16 µg/mL
same,MIC,[18]; [42],32 µg/mL
same,MIC,[19]; [43],16 µg/mL
same,MIC,[20]; growth inhibited by ≥80%,32 µg/mL
same,MIC,[21]; [44],16 µg/mL
same,MIC,[22]; [45],16 µg/mL
same,MIC,[23]; [46],20 ± 9 µg/mL
same,IC50,[24],2.6 ± 0.3 µg/mL
same,IC80,[24],3.7 ± 0.4 µg/mL
same,IC50,"[25]; Caco-2, MTT, 72 h",1.1 ± 0.03 µg/mL
same,IC80,"[25]; Caco-2, MTT, 72 h",5 ± 1.5 µg/mL
same,IC50,[26]; [47],1.8 ± 0.8 µg/mL
same,IC80,[26],4.4 ± 0.7 µg/mL
same,IC50,[27]; [48],0.4 ± 0.05 µg/mL
same,IC80,[27]; [48],0.8 ± 0.05 µg/mL
"O=C(N[C@H](CO)[C@H](O)c1ccc([N+](=O)[O-])cc1)C(Cl)Cl [CA, chloramphenicol]",MIC,[1]; [28],8 µg/mL
same,MIC,[2]; [29],4 µg/mL
same,MIC,[3],4 µg/mL
same,MIC,[4]; [30],128 µg/mL
same,MIC,[5]; [31],4 µg/mL
same,MIC,[6],8 µg/mL
same,MIC,[7]; [32],8 µg/mL
same,MIC,[8],4 µg/mL
same,MIC,[9]; [33],4 µg/mL
same,MIC,[10]; [34],8 µg/mL
same,MIC,[11]; [35],2 µg/mL
same,MIC,[12]; [36],16 µg/mL
same,MIC,"[13]; at least half of the diarrheagenic bacteria, read-out: MICs",1 to 4 µg/mL
same,MIC,[13]; [37],16.5 ± 34 µg/mL
same,MIC,[14]; [38],4 µg/mL
same,MIC,[15]; [39],4 µg/mL
same,MIC,[16]; [40],4 µg/mL
same,MIC,[17]; [41],4 µg/mL
same,MIC,[18]; [42],4 µg/mL
same,MIC,[19]; [43],4 µg/mL
same,MIC,[20]; growth inhibited by ≥80%,16 µg/mL
same,MIC,[21]; [44],8 µg/mL
same,MIC,[22]; [45],8 µg/mL
same,MIC,"[23]; bifidobacteria, range over strains, read-out: MICs",2 to 4 µg/mL
same,MIC,[23]; [46],6.2 ± 4 µg/mL
same,IC50,[24],271.1 ± 1 µg/mL
same,IC80,[24],> 512 µg/mL
same,IC50,"[25]; Caco-2, MTT, 72 h",439.3 ± 4 µg/mL
same,IC80,"[25]; Caco-2, MTT, 72 h",> 512 µg/mL
same,IC50,[26]; [47],355 ± 84 µg/mL
same,IC80,[26],> 512 µg/mL
same,IC80 ± SD (80% inhibitory concentration of proliferation),[27]; [48],"- (Not active (MIC/IC50/80 > 512 μg/mL, the value 1024 μg/mL was used for average calculation))"
same,IC50,[27]; [48],30.7 ± 5.6 µg/mL
same,IC80,[27]; [48],> 512 µg/mL
"O=C(OC[C@H]1O[C@@H](OC(=O)c2cc(O)c(O)c(OC(=O)c3cc(O)c(O)c(O)c3)c2)[C@H](OC(=O)c2cc(O)c(O)c(OC(=O)c3cc(O)c(O)c(O)c3)c2)[C@@H](OC(=O)c2cc(O)c(O)c(OC(=O)c3cc(O)c(O)c(O)c3)c2)[C@@H]1OC(=O)c1cc(O)c(O)c(OC(=O)c2cc(O)c(O)c(O)c2)c1)c1cc(O)c(O)c(OC(=O)c2cc(O)c(O)c(O)c2)c1 [TA, tannic acid]",MIC,"[1]; ATCC14579, […]",512 µg/mL
same,MIC,[2],> 512 µg/mL
same,MIC,[3],512 µg/mL
same,MIC,[4]; ATCC29212,> 512 µg/mL
same,MIC,[5]; ATCC25922,> 512 µg/mL
same,MIC,[6],512 µg/mL
same,MIC,[7]; ATCC7644,> 512 µg/mL
same,MIC,[8],> 512 µg/mL
same,MIC,[9],> 512 µg/mL
same,MIC,[10],> 512 µg/mL
same,MIC,[11]; [35],128 µg/mL
same,MIC,"[12]; ATCC9610, […]",512 µg/mL
same,MIC,[13]; [37],779 ± 307 µg/mL
same,MIC,[14]; ATCC25285,> 512 µg/mL
same,MIC,[15]; DSMZ20087,> 512 µg/mL
same,MIC,[16]; Bifidobacterium animalis,> 512 µg/mL
same,MIC,[17]; ATCC29521,> 512 µg/mL
same,MIC,[18]; [42],256 µg/mL
same,MIC,[19]; [43],128 µg/mL
same,MIC,[20]; […],512 µg/mL
same,MIC,[21],512 µg/mL
same,MIC,[22],> 512 µg/mL
same,MIC,[23]; [49],725 ± 352 µg/mL
"C[n+]1cc2c3c(ccc2c2ccc4cc5c(cc4c21)OCO5)OCO3 [SG, sanguinarine chloride]",MIC,"[1]; ATCC14579, […]",128 µg/mL
same,MIC,[2]; [29],64 µg/mL
same,MIC,[3],128 µg/mL
same,MIC,"[4]; ATCC29212, […], read-out: MIC",32 µg/mL
same,MIC,"[5]; ATCC25922, […], read-out: MIC",256 µg/mL
same,MIC,[6],128 µg/mL
same,MIC,[7]; ATCC7644,16 µg/mL
same,MIC,[8],64 µg/mL
same,MIC,"[9]; Salmonella Enteritidis, […], read-out: MIC",256 µg/mL
same,MIC,"[10]; Salmonella Typhimurium, […], read-out: MIC",512 µg/mL
same,MIC,"[11]; ATCC17802, […]",32 µg/mL
same,MIC,"[12]; ATCC9610, […]",256 µg/mL
same,MIC,[13]; [37],156 ± 137 µg/mL
same,MIC,[14]; ATCC25285,32 µg/mL
same,MIC,[15]; DSMZ20087,16 µg/mL
same,MIC,[16]; Bifidobacterium animalis,32 µg/mL
same,MIC,[17]; ATCC29521,32 µg/mL
same,MIC,[18]; ATCC15700,32 µg/mL
same,MIC,[19]; Bifidobacterium longum,64 µg/mL
same,MIC,[20]; […],32 µg/mL
same,MIC,[21],32 µg/mL
same,MIC,"[22]; Lactobacillus rhamnosus, […], read-out: MIC",64 µg/mL
same,MIC,[23]; [49],37.3 ± 15 µg/mL
same,IC50,[24],0.9 ± 0.2 µg/mL
same,IC80,[24],1.8 ± 0.4 µg/mL
same,IC50,"[25]; Caco-2, 72 h",0.8 ± 0.1 µg/mL
same,IC80,"[25]; Caco-2, 72 h",1.5 ± 0.1 µg/mL
same,IC50,[26],0.8 ± 0.05 µg/mL
same,IC80,[26],1.6 ± 0.2 µg/mL
same,IC50,[27],1 ± 0.1 µg/mL
same,IC80,[27],1.9 ± 0.2 µg/mL
